Laboratory results from PubChem BioAssay (NCI).
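Interpolation was linear, between the two tested concentrations surrounding the appropriate level; five concentrations were tested over 48 hours in 96-well plates. GI50 = concentration required for 50% inhibition of growth. At the TGI there is no net growth.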

Legend:
Test in all cases: inhibition of tumour cell growth, NCI panel, 48 h
K-562 leukemia = test system: K-562 leukemia
U251 CNS = test system: U251 CNS
COLO 205 colon = test system: COLO 205 colon
MALME-3M melanoma = test system: MALME-3M melanoma
HL-60(TB) leukemia = test system: HL-60(TB) leukemia
KM12 colon = test system: KM12 colon
CAKI-1 renal = test system: CAKI-1 renal
MOLT-4 leukemia = test system: MOLT-4 leukemia
SF-539 CNS = test system: SF-539 CNS
SR leukemia = test system: SR leukemia
SF-295 CNS = test system: SF-295 CNS
786-0 renal = test system: 786-0 renal
EKVX NSCLC = test system: EKVX NSCLC
SW-620 colon = test system: SW-620 colon
HOP-62 NSCLC = test system: HOP-62 NSCLC
TK-10 renal = test system: TK-10 renal
A549 NSCLC = test system: A549 NSCLC
PC-3 prostate = test system: PC-3 prostate
HOP-92 NSCLC = test system: HOP-92 NSCLC
T-47D breast = test system: T-47D breast
SK-MEL-28 melanoma = test system: SK-MEL-28 melanoma
OVCAR-3 ovarian = test system: OVCAR-3 ovarian
OVCAR-4 ovarian = test system: OVCAR-4 ovarian
CCRF-CEM leukemia = test system: CCRF-CEM leukemia
SK-MEL-5 melanoma = test system: SK-MEL-5 melanoma
NCI/ADR-RES ovarian = test system: NCI/ADR-RES ovarian
NCI-H226 lung = test system: NCI-H226 lung
SF-268 CNS = test system: SF-268 CNS
HCT-15 colon = test system: HCT-15 colon
DU-145 prostate = test system: DU-145 prostate
RPMI-8226 leukemia = test system: RPMI-8226 leukemia
MDA-MB-468 breast = test system: MDA-MB-468 breast
MCF7 breast = test system: MCF7 breast
A498 renal = test system: A498 renal
HT29 colon = test system: HT29 colon
NCI-H460 lung = test system: NCI-H460 lung
RXF 393 renal = test system: RXF 393 renal
HCC-2998 colon = test system: HCC-2998 colon
NCI-H522 lung = test system: NCI-H522 lung
UACC-257 melanoma = test system: UACC-257 melanoma
MDA-MB-231 breast = test system: MDA-MB-231 breast
UO-31 renal = test system: UO-31 renal
ACHN renal = test system: ACHN renal
MDA-MB-435 = test system: MDA-MB-435
HS 578T breast = test system: HS 578T breast
LOX IMVI melanoma = test system: LOX IMVI melanoma
SK-OV-3 ovarian = test system: SK-OV-3 ovarian
OVCAR-8 ovarian = test system: OVCAR-8 ovarian
SNB-19 CNS = test system: SNB-19 CNS
IGROV1 ovarian = test system: IGROV1 ovarian
OVCAR-5 ovarian = test system: OVCAR-5 ovarian
SN12C renal = test system: SN12C renal
UACC-62 melanoma = test system: UACC-62 melanoma
NCI-H23 lung = test system: NCI-H23 lung
BT-549 breast = test system: BT-549 breast
M14 melanoma = test system: M14 melanoma

Structure (SMILES): COc1ccc2nc(Cl)c(-c3cc(-c4ccccc4)nc(N)n3)cc2c1
- GI50 (K-562 leukemia): 3.21 µM
- TGI (K-562 leukemia): > 100 µM
- GI50 (U251 CNS): 3.26 µM
- TGI (U251 CNS): 13.2 µM
- GI50 (COLO 205 colon): 10.9 µM
- TGI (COLO 205 colon): 25.8 µM
- GI50 (MALME-3M melanoma): 12.2 µM
- TGI (MALME-3M melanoma): 27.4 µM
- GI50 (HL-60(TB) leukemia): 1.55 µM
- TGI (HL-60(TB) leukemia): > 100 µM
- GI50 (KM12 colon): 3.38 µM
- TGI (KM12 colon): 12.6 µM
- GI50 (CAKI-1 renal): 20.5 µM
- TGI (CAKI-1 renal): 71.4 µM
- GI50 (MOLT-4 leukemia): 1.74 µM
- TGI (MOLT-4 leukemia): > 100 µM
- GI50 (SF-539 CNS): 1.89 µM
- TGI (SF-539 CNS): 3.92 µM
- GI50 (SR leukemia): 0.605 µM
- TGI (SR leukemia): > 100 µM
- GI50 (SF-295 CNS): 11.4 µM
- TGI (SF-295 CNS): 36.1 µM
- GI50 (786-0 renal): 1.45 µM
- TGI (786-0 renal): 4.36 µM
- GI50 (EKVX NSCLC): 16.9 µM
- TGI (EKVX NSCLC): 72.2 µM
- GI50 (SW-620 colon): 2.8 µM
- TGI (SW-620 colon): 8.76 µM
- GI50 (HOP-62 NSCLC): 7.47 µM
- TGI (HOP-62 NSCLC): 31.1 µM
- GI50 (TK-10 renal): 22.1 µM
- TGI (TK-10 renal): 90.2 µM
- GI50 (A549 NSCLC): 21.5 µM
- TGI (A549 NSCLC): > 100 µM
- GI50 (PC-3 prostate): 5.79 µM
- TGI (PC-3 prostate): > 100 µM
- GI50 (HOP-92 NSCLC): 11.3 µM
- TGI (HOP-92 NSCLC): 62 µM
- GI50 (T-47D breast): 7.94 µM
- TGI (T-47D breast): > 100 µM
- GI50 (SK-MEL-28 melanoma): 14.6 µM
- TGI (SK-MEL-28 melanoma): 33.8 µM
- GI50 (OVCAR-3 ovarian): 3.71 µM
- TGI (OVCAR-3 ovarian): 14.5 µM
- GI50 (OVCAR-4 ovarian): 22.3 µM
- TGI (OVCAR-4 ovarian): > 100 µM
- GI50 (CCRF-CEM leukemia): 2.58 µM
- TGI (CCRF-CEM leukemia): > 100 µM
- GI50 (SK-MEL-5 melanoma): 12.2 µM
- TGI (SK-MEL-5 melanoma): 24.6 µM
- GI50 (NCI/ADR-RES ovarian): 4.77 µM
- TGI (NCI/ADR-RES ovarian): 36 µM
- GI50 (NCI-H226 lung): 7.23 µM
- TGI (NCI-H226 lung): 53.9 µM
- GI50 (SF-268 CNS): 28.1 µM
- TGI (SF-268 CNS): > 100 µM
- GI50 (HCT-15 colon): 2.67 µM
- TGI (HCT-15 colon): 8.1 µM
- GI50 (DU-145 prostate): 4.03 µM
- TGI (DU-145 prostate): > 100 µM
- GI50 (RPMI-8226 leukemia): 3.31 µM
- TGI (RPMI-8226 leukemia): > 100 µM
- GI50 (MDA-MB-468 breast): 4 µM
- TGI (MDA-MB-468 breast): 16.5 µM
- GI50 (MCF7 breast): 2.82 µM
- TGI (MCF7 breast): 12.8 µM
- GI50 (A498 renal): 25.9 µM
- TGI (A498 renal): > 100 µM
- GI50 (HT29 colon): 5.11 µM
- TGI (HT29 colon): 18.7 µM
- GI50 (NCI-H460 lung): 3.58 µM
- TGI (NCI-H460 lung): 13.5 µM
- GI50 (RXF 393 renal): 3.51 µM
- TGI (RXF 393 renal): 13.7 µM
- GI50 (HCC-2998 colon): 10.6 µM
- TGI (HCC-2998 colon): 22.5 µM
- GI50 (NCI-H522 lung): 11.7 µM
- TGI (NCI-H522 lung): 27.4 µM
- GI50 (UACC-257 melanoma): 19 µM
- TGI (UACC-257 melanoma): 66.5 µM
- GI50 (MDA-MB-231 breast): 6.97 µM
- TGI (MDA-MB-231 breast): 38.8 µM
- GI50 (UO-31 renal): 4.3 µM
- TGI (UO-31 renal): 17.6 µM
- GI50 (ACHN renal): 10.6 µM
- TGI (ACHN renal): 30.8 µM
- GI50 (MDA-MB-435): 12.8 µM
- TGI (MDA-MB-435): 33 µM
- GI50 (HS 578T breast): 20.8 µM
- TGI (HS 578T breast): > 100 µM
- GI50 (LOX IMVI melanoma): 1.92 µM
- TGI (LOX IMVI melanoma): 4.23 µM
- GI50 (SK-OV-3 ovarian): 39.7 µM
- TGI (SK-OV-3 ovarian): > 100 µM
- GI50 (OVCAR-8 ovarian): 3.37 µM
- TGI (OVCAR-8 ovarian): 18.5 µM
- GI50 (SNB-19 CNS): 7.62 µM
- TGI (SNB-19 CNS): 23.5 µM
- GI50 (IGROV1 ovarian): 8.04 µM
- TGI (IGROV1 ovarian): 23.7 µM
- GI50 (OVCAR-5 ovarian): 6.61 µM
- TGI (OVCAR-5 ovarian): 29.1 µM
- GI50 (SN12C renal): 4.71 µM
- TGI (SN12C renal): 19.2 µM
- GI50 (UACC-62 melanoma): 11 µM
- TGI (UACC-62 melanoma): 24 µM
- GI50 (NCI-H23 lung): 6.53 µM
- TGI (NCI-H23 lung): 23.4 µM
- GI50 (BT-549 breast): 1.54 µM
- TGI (BT-549 breast): 3.32 µM
- GI50 (M14 melanoma): 4.33 µM
- TGI (M14 melanoma): 25.9 µM
